Measurements published in BindingDB's records for doi:10.1021/acs.biochem.5b01325 (University of Texas At San Antonio, 2016).

Molecular target: T1, (S)-6-hydroxynicotine oxidase (Paenarthrobacter nicotinovorans, UniProt O86101)
T1 sequence (O86101 whole entry): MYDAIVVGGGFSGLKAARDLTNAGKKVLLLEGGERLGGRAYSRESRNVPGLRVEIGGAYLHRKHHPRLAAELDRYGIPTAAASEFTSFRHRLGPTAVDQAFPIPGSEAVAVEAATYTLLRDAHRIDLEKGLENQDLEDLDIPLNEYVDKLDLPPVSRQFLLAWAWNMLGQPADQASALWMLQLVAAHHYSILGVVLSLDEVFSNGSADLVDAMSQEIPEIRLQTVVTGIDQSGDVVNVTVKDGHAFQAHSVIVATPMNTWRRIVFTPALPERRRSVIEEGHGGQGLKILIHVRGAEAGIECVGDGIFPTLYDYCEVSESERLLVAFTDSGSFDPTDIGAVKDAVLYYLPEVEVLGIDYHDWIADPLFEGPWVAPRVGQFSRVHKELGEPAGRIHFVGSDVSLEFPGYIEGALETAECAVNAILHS
Experiment: Steady-State Kinetics
Details: pH 8
Experimental: Initial rates of amine oxidation were routinely measured by monitoring oxygen consumption in 0.1 M Hepes (pH 8.0) and 0.1 M NaCl at 25 °C using an oxygen electrode (model 5300A, Yellow Springs Instruments, Yellow Springs, OH). With (R,S)-6-hydroxynicotine and (S)-6-hydroxynornicotine, the concentration of enzyme was typically 0.1 μM; this was increased to 4 μM for (S)-nicotine and (R,S)-4-(1-methyl pyrrolidine-2-yl)phenol. The concentration of oxygen was varied by bubbling the desired concentration of oxygen (62 μM to 1.25 mM) into the oxygen electrode cell for ∼10 min.

| SMILES | Kd [µM] |
| --- | --- |
| CN1CCC[C@H]1c1ccc(O)cc1 [(S)-4-(1-methylpyrrolidine-2-yl)phenol] | 2000 |
| O=c1ccc([C@@H]2CCCN2)c[nH]1 [(S)-6-hydroxynornicotine] | 300 |
| CN1CCC[C@H]1c1ccc(=O)[nH]c1 [(S)-6-hydroxynicotine] | 100 |
